From patent publication US10995363B2, “Nucleotide analogs” (ABBOTT MOLECULAR INC., priority 2013, dated 2021)

Tests used:
[1] = target: T1, Therminator II DNA polymerase (Thermococcus sp., UniProt Q56366, A485L/D141A/E143A/Y409V); experiment: Polymerase extension assay: incorporation of 3′-O-propargyl-dNTP at the 3′ end of a primer on KRAS template; format: biochemical, Thermococcus sp. 9∘N; settings: 2 mM MnCl2, KRAS template, 35 cycles, size analysis by gel electrophoresis
T1 construct: purchased New England BioLabs
Experimental: During the development of embodiments of the technology provided herein, experiments were conducted to assess the incorporation of 3′-O-propargyl-dNTPs into a nucleic acid by a polymerase. In particular, experiments were conducted to evaluate the accurate incorporation of 3′-O-propargyl-dNTPs into a nucleic acid and to evaluate the terminating activity of the 3′-O-propargyl-dNTPs. To assess these characteristics of the nucleotide analogs provided herein, polymerase extension assays were conducted using a template nucleic acid having a sequence from human KRAS (e.g., KRAS exon 2 and flanking intron sequences) and a complementary primer (Table 2).
To test incorporation of a 3′-O-propargyl-dTTP into a nucleic acid, a polymerase extension reaction mix was assembled comprising 20 mM Tris-HCl, 10 mM (NH4)SO4, 10 mM KCl, 2 mM MnCl2, 0.1% Triton X-100, 200 μmol 3′-O-propargyl-dTTP, 6.25 μmol of primer R_ke2_trP1_T_bio (SEQ ID NO: 2), and 2 units of Therminator II DNA polymerase (New England BioLabs) in a 25-μl final reaction volume. A volume of 0.5 μmol of the KRAS template (SEQ ID NO: 1) was used as template (Table 2). The polymerase extension reaction was performed using a temperature cycling profile comprising exposing the reaction to a temperature of 95° C. for 2 minutes followed by 35 cycles of 95° C. for 15 seconds, 55° C. for 25 seconds, and 65° C. for 35 seconds.
(§1) After the polymerase extension reaction, 1 μl of the reaction mix was used directly for nucleic acid size analysis by gel electrophoresis (e.g., using an Agilent 2100 Bioanalyzer and High Sensitivity DNA Assay Chip).
Additional polymerase extension experiments were performed using the reaction conditions described above and replacing the 3′-O-propargyl-dTTP and the primer R_ke2_trP1_T_bio with 3′-O-propargyl-dATP and the primer R_ke2_trP1_A bio (SEQ ID NO: 3); 3′-O-propargyl-dCTP and the primer R_ke2_trP1_C bio (SEQ ID NO: 5); and 3′-O-propargyl dGTP and the primer R_ke2_trP1_G bio (SEQ ID NO: 4).

[2] = target: T1, Therminator II DNA polymerase; experiment: Ladder fragment generation with natural dNTPs and one 3′-O-propargyl-dNTP; format: biochemical, Thermococcus sp. 9∘N; settings: natural dNTPs plus one 3′-O-propargyl-dNTP, KRAS template, 50 cycles
Experimental: During the development of embodiments of the technology provided herein, experiments were conducted to assess using the nucleotide analogs of the present technology to generate nucleic acid fragments that terminate at base-specific positions. In particular, reaction mixtures were produced and tested that included both natural dNTPs and each of the 3′-O-propargyl-dNTPs individually.
To test the fragment generation by 3′-O-propargyl-dTTP, a DNA fragment generation reaction mix was prepared comprising 20 mM Tris-HCl, 10 mM (NH4)SO4, 10 mM KCl, 2 mM MnCl2, 0.1% Triton X-100, 1000 μmol dATP, 1000 μmol dCTP, 1000 μmol dGTP, 1000 μmol dTTP, 200 μmol 3′-O-propargyl-dTTP, 6.25 μmol of primer R_ke2_trP1_T_bio (SEQ ID NO: 2), and 2 units of THERMINATOR II DNA polymerase (New England BioLabs) in a 25-μl final reaction volume. A volume of 0.5 μmol of the KRAS template (SEQ ID NO: 1) was used as template. The polymerase extension reaction was performed using a temperature cycling profile comprising exposing the reaction to a temperature of 95° C. for 2 minutes followed by 50 cycles of 95° C. for 15 seconds, 55° C. for 25 seconds, and 65° C. for 35 seconds.
as §1
Additional polymerase extension experiments were performed using the reaction conditions described above and replacing the 3′-O-propargyl-dTTP with 3′-O-propargyl-dATP, 3′-O-propargyl-dCTP, or 3′-O-propargyl dGTP.

T1 sequence (Q56366 whole entry D141A/E143A/Y409V/A485L): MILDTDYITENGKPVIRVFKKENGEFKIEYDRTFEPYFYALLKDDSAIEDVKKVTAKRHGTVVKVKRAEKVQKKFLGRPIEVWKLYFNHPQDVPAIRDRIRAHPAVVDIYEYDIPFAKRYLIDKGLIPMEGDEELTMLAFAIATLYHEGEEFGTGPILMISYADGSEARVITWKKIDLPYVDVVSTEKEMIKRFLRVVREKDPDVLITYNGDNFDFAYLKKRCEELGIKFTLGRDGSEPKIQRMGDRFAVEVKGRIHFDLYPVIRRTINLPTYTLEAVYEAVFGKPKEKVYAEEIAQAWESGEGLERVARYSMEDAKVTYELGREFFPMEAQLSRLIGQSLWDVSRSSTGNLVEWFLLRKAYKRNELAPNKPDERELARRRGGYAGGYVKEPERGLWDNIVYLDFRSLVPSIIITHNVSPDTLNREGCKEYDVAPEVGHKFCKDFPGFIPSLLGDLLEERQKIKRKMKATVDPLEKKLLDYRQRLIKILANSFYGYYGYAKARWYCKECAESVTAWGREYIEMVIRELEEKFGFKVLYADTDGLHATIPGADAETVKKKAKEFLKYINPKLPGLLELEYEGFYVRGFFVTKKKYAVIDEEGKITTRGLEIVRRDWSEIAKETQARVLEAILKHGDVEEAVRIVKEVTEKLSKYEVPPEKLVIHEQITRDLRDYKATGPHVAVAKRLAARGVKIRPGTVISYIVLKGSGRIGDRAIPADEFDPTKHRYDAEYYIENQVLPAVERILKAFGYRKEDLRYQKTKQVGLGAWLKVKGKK

Which results are given for `C#CCO[C@H]1C[C@H](n2cc(C)c(=O)[nH]c2=O)O[C@@H]1COP(=O)(O)OP(=O)(O)OP(=O)(O)O` [3′-O-propargyl-dTTP, 3′-O-propargyl-2′-deoxythymidine-5′-triphosphate]?
amounts of the two populations of nucleic acids (primer length vs primer plus one base) [1]: approximately equal; incorporation at the 3′ end of the primer [1]: successful incorporation; generation of nucleic acid fragments terminated at base-specific positions [2]: generated a population of nucleic acid fragments having a range of sizes corresponding to the expected lengths
